# In publication PMC5433008 (BMC Neuroscience, 2017):
# Where no end group is shown, it is not given here.
# What was measured:
# [1] = test system: NMDA-evoked currents in cultured rat embryonic hippocampal neurons (NMDAr)
# NMDA/GluN2B = details: Ro 25-6981 1 µM; ref [40]; cited from earlier work
# [2] = test system: voltage-dependent Na^+ channels; details: 1 µM; ref [40]; cited from earlier work
# [3] = test system: voltage-dependent Ca^+2 channels; details: 1 µM; ref [40]; cited from earlier work
# [4] = test system: NMDA-evoked currents in hippocampal neurons; details: cited from earlier work
# [5] = test system: NMDA-evoked currents in cortical neurons; details: cited from earlier work
# GluN1a–GluN2B = details: cited from earlier work
# [6] = test system: NMDAr containing the GluN2B subunit; details: cited from earlier work
Compound,block of NMDA-evoked currents [1],reversibility of block [1],use-dependence of block [1],"block of NMDA-evoked currents, percent (GluN2B blocker) [1]",1 µM relative to the concentration producing 50% inhibition of NMDA/GluN2B-mediated currents (NMDA/GluN2B),effect on voltage-dependent Na^+ channels [2],effect on voltage-dependent Ca^+2 channels [3],IC50 [4],IC50 [5],recovery of NMDA-evoked current after washout [5],reversibility [5],IC50 (GluN1a–GluN2B),recovery of NMDA-evoked currents after washout (GluN1a–GluN2B),selectivity for NMDAr containing the GluN2B subunit [6]
"C[C@]12N[C@H](Cc3ccccc31)c1ccccc12 [(+)MK-801, Dizocilpine]",blocked the NMDA-evoked currents,irreversible,increased with exposures to the blocker,,,,,,,,,,,
C[C@@H](CN1CCC(Cc2ccccc2)CC1)[C@@H](O)c1ccc(O)cc1 [Ro 25-6981],,no reversibility following 4 min of washout,use-dependent,70%,100 fold,minimal or no effects,minimal or no effects,,,,,,,
"conantokin-G: 17 amino acid peptide (MW 2264.2 Da), cone snail toxin selective for NMDAr containing GluN2B (GEEELQENQELIREKSN; ends and bridges not checked; UniProt P07231 81-97, looked up)",,,,,,,,480 nM,480 nM,about 10%,very slow and incomplete reversibility,100 nM,about 80%,selective for NMDAr containing the GluN2B subunit
